We go through two compounds from ChEMBL document CHEMBL4507268 (2021).

Assay [1] deals with Histamine H1 receptor (Homo sapiens) (UniProt P35367). The conditions noted are these: Compound concentration 10.0 uM.
For assay [2], the target named is Hepatocyte growth factor receptor (Homo sapiens) (UniProt P08581). The settings on record: Compound concentration 1000.0 nM.
Assay [3] concerns the target Microtubule-associated serine/threonine-protein kinase 1 (Homo sapiens) (UniProt Q9Y2H9). The settings on record: Compound concentration 1000.0 nM.
Assay [4] addresses Casein kinase I isoform alpha (Homo sapiens) (UniProt P48729). The conditions noted are these: Compound concentration 1000.0 nM.
In assay [5] the target is T1, Serine/threonine-protein kinase TBK1 (Homo sapiens) (UniProt Q9UHD2).
T1 sequence (whole entry): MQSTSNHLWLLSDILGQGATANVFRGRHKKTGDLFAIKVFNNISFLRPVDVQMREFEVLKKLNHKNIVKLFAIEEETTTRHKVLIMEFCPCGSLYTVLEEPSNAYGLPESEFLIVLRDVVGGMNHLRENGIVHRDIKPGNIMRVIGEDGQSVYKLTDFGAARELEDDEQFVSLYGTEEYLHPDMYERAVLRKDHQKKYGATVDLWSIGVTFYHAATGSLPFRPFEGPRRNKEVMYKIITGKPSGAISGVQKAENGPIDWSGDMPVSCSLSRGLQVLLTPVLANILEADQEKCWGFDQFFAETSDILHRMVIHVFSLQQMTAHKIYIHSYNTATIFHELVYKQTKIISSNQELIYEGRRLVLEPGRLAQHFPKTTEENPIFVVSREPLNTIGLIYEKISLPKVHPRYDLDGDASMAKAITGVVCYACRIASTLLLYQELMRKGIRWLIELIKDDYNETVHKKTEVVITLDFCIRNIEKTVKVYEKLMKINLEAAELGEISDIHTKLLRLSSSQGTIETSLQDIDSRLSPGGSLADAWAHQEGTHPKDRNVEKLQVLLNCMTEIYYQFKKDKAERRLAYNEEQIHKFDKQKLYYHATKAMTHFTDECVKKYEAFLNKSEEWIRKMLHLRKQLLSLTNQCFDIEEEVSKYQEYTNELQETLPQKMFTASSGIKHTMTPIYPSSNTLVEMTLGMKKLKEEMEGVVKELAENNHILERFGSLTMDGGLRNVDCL
The conditions noted are these: Compound concentration 1000.0 nM.

The target in assay [6] is Bone morphogenetic protein receptor type-1A (Homo sapiens) (UniProt P36894). The conditions noted are these: Compound concentration 1000.0 nM.
Assay [7] has as its target Alpha-2C adrenergic receptor (Homo sapiens) (UniProt P18825). The conditions noted are these: Compound concentration 10.0 uM.
The target in assay [8] is T2, Serine/threonine-protein kinase D1 (Homo sapiens) (UniProt Q15139).
T2 sequence (whole entry): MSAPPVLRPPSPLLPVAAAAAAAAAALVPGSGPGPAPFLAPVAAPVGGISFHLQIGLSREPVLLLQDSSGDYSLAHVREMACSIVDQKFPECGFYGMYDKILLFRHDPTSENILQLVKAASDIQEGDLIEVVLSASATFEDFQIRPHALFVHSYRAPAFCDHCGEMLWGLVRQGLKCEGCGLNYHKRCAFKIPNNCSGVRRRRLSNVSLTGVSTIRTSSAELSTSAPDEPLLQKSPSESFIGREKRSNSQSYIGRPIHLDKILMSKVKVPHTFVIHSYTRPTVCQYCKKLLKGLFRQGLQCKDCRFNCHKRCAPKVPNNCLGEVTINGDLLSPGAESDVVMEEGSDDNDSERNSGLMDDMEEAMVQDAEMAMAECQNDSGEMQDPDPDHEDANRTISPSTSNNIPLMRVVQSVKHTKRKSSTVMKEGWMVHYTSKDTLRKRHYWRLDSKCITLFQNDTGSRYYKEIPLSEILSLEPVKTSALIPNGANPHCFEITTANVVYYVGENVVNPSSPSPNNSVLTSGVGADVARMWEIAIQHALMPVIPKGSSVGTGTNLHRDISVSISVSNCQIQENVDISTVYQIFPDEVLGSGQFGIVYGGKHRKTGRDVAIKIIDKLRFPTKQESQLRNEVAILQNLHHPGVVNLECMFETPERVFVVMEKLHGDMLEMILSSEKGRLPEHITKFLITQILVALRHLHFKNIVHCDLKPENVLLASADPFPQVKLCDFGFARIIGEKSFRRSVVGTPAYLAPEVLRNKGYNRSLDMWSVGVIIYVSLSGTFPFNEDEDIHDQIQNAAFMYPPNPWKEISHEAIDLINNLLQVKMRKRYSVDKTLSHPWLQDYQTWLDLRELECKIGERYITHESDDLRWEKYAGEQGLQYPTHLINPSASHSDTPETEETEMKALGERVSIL
The settings on record: Compound concentration 1000.0 nM.

The target of assay [9] is Serine/threonine-protein kinase ULK1 (Homo sapiens) (UniProt O75385). The settings on record: Compound concentration 1000.0 nM.
Assay [10] addresses Serine/threonine-protein kinase 32A (Homo sapiens) (UniProt Q8WU08). The conditions noted are these: Compound concentration 1000.0 nM.
The target of assay [11] is Mitogen-activated protein kinase kinase kinase 13 (Homo sapiens) (UniProt O43283). The settings on record: Compound concentration 1000.0 nM.
The target in assay [12] is T3, Mitogen-activated protein kinase 12 (Homo sapiens) (UniProt P53778).
T3 sequence (whole entry): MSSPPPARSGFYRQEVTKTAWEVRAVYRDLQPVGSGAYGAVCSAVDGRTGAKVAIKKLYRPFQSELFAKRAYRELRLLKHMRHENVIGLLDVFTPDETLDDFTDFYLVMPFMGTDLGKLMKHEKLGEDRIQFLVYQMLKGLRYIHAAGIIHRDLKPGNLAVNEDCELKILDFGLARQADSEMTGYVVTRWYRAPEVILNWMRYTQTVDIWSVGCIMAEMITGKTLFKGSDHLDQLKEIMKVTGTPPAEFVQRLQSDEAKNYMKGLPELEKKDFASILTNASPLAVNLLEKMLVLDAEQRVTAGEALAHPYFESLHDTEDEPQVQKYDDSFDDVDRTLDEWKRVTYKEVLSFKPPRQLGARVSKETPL
The settings on record: Compound concentration 1000.0 nM.

Sequence of Mitogen-activated protein kinase kinase kinase 13 (Homo sapiens) (O43283 whole entry): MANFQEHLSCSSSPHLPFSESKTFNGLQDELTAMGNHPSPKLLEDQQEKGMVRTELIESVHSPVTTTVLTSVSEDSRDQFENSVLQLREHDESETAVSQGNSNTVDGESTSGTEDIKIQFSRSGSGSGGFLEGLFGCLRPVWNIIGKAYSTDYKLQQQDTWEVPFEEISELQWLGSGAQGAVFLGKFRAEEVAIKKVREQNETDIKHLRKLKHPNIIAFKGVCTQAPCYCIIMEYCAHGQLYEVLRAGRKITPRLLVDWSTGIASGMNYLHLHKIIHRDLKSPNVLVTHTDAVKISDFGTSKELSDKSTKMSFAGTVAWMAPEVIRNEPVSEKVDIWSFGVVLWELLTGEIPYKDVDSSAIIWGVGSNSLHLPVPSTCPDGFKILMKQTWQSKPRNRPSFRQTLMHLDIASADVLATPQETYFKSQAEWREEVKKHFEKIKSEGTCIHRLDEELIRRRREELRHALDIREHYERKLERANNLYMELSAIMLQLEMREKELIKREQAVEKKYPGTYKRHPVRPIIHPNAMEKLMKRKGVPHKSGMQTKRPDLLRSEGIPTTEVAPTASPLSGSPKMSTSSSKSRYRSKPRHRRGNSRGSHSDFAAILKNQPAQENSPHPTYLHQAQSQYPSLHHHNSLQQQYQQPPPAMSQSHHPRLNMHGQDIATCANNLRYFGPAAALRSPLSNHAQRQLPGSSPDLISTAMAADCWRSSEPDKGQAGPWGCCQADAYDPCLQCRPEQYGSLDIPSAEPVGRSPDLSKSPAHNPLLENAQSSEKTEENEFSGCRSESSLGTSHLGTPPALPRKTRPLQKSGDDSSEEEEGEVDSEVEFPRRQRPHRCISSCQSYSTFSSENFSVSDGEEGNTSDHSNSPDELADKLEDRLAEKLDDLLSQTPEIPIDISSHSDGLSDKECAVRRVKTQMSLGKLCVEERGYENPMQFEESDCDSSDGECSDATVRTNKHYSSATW
Sequence of Microtubule-associated serine/threonine-protein kinase 1 (Homo sapiens) (Q9Y2H9 whole entry, looked up, canonical isoform): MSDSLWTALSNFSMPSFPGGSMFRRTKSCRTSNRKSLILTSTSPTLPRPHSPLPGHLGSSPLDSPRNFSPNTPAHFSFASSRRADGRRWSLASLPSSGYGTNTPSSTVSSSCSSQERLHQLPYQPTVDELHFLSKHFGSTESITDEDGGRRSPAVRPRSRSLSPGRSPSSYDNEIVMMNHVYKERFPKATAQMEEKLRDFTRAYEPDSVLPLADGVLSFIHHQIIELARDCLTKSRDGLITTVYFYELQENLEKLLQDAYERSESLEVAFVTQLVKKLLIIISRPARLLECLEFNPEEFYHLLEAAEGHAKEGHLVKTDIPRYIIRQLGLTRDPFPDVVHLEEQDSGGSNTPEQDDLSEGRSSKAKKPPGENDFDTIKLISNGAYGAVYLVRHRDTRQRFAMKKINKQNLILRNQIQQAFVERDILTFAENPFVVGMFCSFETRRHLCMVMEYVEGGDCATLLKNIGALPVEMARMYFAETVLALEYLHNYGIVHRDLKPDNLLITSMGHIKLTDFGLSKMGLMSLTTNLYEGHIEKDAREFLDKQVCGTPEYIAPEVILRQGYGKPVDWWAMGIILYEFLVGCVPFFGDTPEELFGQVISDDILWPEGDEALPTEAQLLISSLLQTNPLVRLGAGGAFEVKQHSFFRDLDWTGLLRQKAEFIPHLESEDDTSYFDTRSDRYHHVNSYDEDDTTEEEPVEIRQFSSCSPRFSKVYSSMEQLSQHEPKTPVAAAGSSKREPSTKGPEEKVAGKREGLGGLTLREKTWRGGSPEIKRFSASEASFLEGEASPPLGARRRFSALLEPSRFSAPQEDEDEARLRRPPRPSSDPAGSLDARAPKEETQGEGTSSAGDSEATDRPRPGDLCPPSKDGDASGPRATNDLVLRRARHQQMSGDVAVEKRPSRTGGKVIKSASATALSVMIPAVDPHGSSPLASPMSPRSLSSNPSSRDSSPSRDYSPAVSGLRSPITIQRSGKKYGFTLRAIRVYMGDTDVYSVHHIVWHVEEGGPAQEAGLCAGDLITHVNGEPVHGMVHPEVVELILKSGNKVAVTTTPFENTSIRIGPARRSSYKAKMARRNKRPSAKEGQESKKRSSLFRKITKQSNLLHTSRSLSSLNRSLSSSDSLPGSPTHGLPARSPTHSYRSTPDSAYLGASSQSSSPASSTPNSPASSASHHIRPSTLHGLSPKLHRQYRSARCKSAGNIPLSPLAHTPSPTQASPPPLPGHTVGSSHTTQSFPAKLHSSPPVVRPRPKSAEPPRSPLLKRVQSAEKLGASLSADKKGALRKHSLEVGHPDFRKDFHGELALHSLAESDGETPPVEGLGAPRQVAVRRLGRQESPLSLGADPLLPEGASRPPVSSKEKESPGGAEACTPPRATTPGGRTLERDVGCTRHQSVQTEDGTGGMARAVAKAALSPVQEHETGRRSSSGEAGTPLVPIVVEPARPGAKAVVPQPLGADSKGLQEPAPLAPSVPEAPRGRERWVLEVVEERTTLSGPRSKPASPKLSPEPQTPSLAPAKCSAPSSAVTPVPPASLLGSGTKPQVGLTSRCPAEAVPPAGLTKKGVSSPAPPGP
Sequence of Casein kinase I isoform alpha (Homo sapiens) (P48729 2-337 limits assumed): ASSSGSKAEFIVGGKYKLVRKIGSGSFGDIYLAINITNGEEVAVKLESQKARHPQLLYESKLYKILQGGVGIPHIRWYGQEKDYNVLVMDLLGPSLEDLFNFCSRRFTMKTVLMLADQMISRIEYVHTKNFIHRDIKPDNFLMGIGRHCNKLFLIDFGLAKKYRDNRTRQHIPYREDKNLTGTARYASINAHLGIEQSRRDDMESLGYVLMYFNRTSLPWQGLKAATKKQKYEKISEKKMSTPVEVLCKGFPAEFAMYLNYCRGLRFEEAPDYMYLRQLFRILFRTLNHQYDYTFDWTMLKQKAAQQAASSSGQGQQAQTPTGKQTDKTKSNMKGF
Sequence of Serine/threonine-protein kinase ULK1 (Homo sapiens) (O75385 whole entry): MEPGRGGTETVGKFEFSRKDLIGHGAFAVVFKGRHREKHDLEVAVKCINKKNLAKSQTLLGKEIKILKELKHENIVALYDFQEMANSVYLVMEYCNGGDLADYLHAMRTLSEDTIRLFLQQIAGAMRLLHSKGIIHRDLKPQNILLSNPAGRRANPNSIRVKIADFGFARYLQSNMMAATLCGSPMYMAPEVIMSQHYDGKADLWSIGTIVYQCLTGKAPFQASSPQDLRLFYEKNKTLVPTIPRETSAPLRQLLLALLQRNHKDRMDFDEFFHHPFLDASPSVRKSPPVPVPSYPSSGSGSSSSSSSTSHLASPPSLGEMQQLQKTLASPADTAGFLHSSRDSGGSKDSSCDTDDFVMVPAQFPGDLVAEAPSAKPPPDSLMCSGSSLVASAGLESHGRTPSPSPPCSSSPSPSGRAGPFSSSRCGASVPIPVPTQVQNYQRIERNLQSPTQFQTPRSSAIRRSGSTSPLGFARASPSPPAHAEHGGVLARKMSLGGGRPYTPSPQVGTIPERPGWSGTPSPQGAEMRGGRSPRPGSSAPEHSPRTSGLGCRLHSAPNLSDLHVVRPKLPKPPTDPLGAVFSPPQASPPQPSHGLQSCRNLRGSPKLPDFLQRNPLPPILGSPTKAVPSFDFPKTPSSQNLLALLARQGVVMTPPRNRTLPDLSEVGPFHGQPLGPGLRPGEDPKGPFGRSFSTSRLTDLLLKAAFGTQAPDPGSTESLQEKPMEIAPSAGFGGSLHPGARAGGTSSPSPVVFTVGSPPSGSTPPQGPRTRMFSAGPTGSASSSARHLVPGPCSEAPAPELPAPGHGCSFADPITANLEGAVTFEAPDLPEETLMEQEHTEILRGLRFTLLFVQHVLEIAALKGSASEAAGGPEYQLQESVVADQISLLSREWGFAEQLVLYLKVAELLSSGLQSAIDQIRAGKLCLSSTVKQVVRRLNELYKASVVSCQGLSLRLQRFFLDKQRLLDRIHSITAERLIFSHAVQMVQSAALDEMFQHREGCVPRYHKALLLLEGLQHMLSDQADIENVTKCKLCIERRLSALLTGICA
Sequence of Serine/threonine-protein kinase 32A (Homo sapiens) (Q8WU08 whole entry): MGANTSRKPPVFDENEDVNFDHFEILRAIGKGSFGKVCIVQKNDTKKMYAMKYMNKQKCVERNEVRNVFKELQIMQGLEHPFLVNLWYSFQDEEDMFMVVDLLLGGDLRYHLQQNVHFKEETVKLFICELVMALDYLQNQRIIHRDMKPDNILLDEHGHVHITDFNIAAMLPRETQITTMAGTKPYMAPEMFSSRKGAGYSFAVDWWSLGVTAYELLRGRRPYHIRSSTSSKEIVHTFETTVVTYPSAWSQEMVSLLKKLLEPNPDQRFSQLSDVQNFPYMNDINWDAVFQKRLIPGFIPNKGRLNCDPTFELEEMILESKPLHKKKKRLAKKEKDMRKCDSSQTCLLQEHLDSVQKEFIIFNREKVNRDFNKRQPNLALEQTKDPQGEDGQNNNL
Sequence of Bone morphogenetic protein receptor type-1A (Homo sapiens) (P36894 whole entry): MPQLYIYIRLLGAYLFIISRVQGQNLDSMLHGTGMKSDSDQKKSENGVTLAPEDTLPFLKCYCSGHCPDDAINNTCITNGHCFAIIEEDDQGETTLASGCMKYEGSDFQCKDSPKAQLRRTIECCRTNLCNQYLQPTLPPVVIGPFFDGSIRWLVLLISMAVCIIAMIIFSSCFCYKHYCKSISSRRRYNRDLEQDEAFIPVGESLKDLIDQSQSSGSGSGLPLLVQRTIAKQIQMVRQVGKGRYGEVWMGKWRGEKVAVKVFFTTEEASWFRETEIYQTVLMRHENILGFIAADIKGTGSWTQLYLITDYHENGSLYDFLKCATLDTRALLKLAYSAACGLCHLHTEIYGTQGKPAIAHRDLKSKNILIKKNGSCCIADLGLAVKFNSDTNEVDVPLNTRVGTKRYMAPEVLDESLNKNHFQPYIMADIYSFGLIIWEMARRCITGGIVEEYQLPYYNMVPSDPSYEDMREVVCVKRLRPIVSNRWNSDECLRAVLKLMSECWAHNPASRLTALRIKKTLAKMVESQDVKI

As for `Cc1nc(C2CCN(C(=O)c3ccc(OC(F)(F)F)cc3N)CC2)c2ncc(N3CCN(C)CC3)cc2n1` [BAY-693], the inhibition (usually the change of the read-out against control, counted positive when it falls) was 4.99% in assay [1] and -6.01% in assay [7]. The residual activity was 94% in [2]; 100% in [3]; 100% in assay [4]; 100% in [5]; 80% in [6]; 79% in assay [8]. For the same compound, the residual activity was 49% in assay [9], 86% in [10], 100% in [11] and 100% in [12].
For the compound `CN1CCN(c2cnc3c(C4CCN(C(=O)c5ccc(OC(F)(F)F)cc5N)CC4)ncnc3c2)CC1` [BAY-885], the values for the inhibition in assay [1] and in assay [7] were 14.6% and -2.34%, respectively. The residual activity in assay [2] was 69%; in [3] it was 100%; in assay [4], 91%; in assay [5] it was 61%; in assay [6], 79%; in assay [8], 85%. In addition, the residual activity is 100% in [9], 94% in [10], 100% in [11] and 83% in assay [12].
